Source: patent US20250164397A1, “SULPHIDE SENSOR” (Oxford University Innovation Limited, priority 2021, published 2025)

What was measured:
[1] = cited from earlier work
[2] = Fluorescence titration with NaCl, Bindfit 1:1 analysis, pH 7.4 10 mM aqueous HEPES buffer; assay type: binding; design: key to Association constant Ka Cl^−: NB: No binding observed; settings: for Association constant Ka Cl^−: 10 μM receptors in 10 mM aqueous HEPES buffer solution, pH = 7.4, 1:1 host:guest, errors in brackets; for fluorescence response to Cl^−: excitation at 342 nm, pH 7.4 HEPES
Experimental: (§1) Fluorescence titration experiments were performed using a Horiba Duetta at 293 K. The host molecules (XB1-3, and HB1-3) were dissolved in 10 mM HEPES aqueous buffer solution at pH 7.4 at a concentration of 10 μM. Na salts of the appropriate anion were dissolved in the solution of the host molecule to obtain a concentration. Aliquots of the anion solution were added to 1.00 mL of the host solution in a quartz cuvette, where the sample was then thoroughly mixed before fluorescence spectra were recorded. Association constants were obtained by global analysis using BindFit, using a host-guest 1:1 binding model.
(§2) The anion sensing properties were investigated in pH 7.4 aqueous HEPES buffer solution using fluorescence spectroscopy. At this pH value the protonated forms XB3H^+ and HB3H^+ are the dominant receptor species present in the aqueous solution. The amine pKa of XB3 (10.29) and HB3 (9.98) were experimentally determined by monitoring changes in fluorescence with pH. (FIG. 16).
(§3) The fluorescence emission, following excitation at 342 nm, was monitored upon the addition of sodium hydrosulfide and halide salts.
(§4) With XB2, both Br^− and I^− were sensed (FIG. 11), with the heavier halide also being detected by XB3H^+ (FIG. 13).
(§5) Bindfit analysis^23,24 of the titration data for XB and HB receptors was used to determine 1:1 host: guest stoichiometric anion association constants, as shown below in Table 1.

[3] = Fluorescence titration with NaBr, Bindfit 1:1 analysis, pH 7.4 10 mM aqueous HEPES buffer; assay type: binding; design: key to Association constant Ka Br^−: NB: No binding observed; settings: for Association constant Ka Br^−: 10 μM receptors in 10 mM aqueous HEPES buffer solution, pH = 7.4, 1:1 host:guest, errors in brackets; for fluorescence response to Br^−: excitation at 342 nm, pH 7.4 HEPES
Experimental: as §1, §2, §3, §4, §5

[4] = Fluorescence titration with NaI, Bindfit 1:1 analysis, pH 7.4 10 mM aqueous HEPES buffer; assay type: binding; design: key to Association constant Ka I^−: NB: No binding observed; settings: for Association constant Ka I^−: 10 μM receptors in 10 mM aqueous HEPES buffer solution, pH = 7.4, 1:1 host:guest, errors in brackets; for fluorescence response to I^−: excitation at 342 nm, pH 7.4 HEPES
Experimental: as §1, §2, §3, §4, §5

[5] = Fluorescence titration with NaHS, Bindfit 1:1 analysis and LoD, pH 7.4 10 mM aqueous HEPES buffer; assay type: binding; design: key to Association constant Ka HS^− / LoD, Limit of Detection for HS−: NB: No binding observed; settings: for Association constant Ka HS^−: 10 μM receptors in 10 mM aqueous HEPES buffer solution, pH = 7.4, 1:1 host:guest, errors in brackets; for LoD, Limit of Detection for HS−: 10 μM receptors in 10 mM aqueous HEPES buffer, pH 7.4
Experimental: as §1, §2
The fluorescence emission, following excitation at 342 nm, was monitored upon the addition of sodium hydrosulfide and halide salts. […]
as §5

[6] = Fluorescence emission change on addition of NaCl, NaBr, NaI, NaHS in pH 7.4 HEPES buffer (any anion); assay type: binding
Experimental: as §1, §3, §4

[7] = pKa determined by monitoring changes in fluorescence with pH; assay type: physicochemical; settings: for pKa1 / pKa2: emission intensity change with changing pH; for amine pKa: monitoring changes in fluorescence with pH
Excerpt: FIG. 16. XB3: a) XB3 emission intensity change with decreasing pH; b) Emission intensity change for select wavelengths with changing pH; pKa1=4.07 (±0.01), pKa2=10.29 (±0.01). HB3: a) HB3 emission intensity change with decreasing pH; b) Emission intensity change for select wavelengths with changing pH; pKa1=5.91 (±0.07), pKa2=9.98 (±0.01).
as §2

[8] = Fluorescence response of BODIPY receptors in H2O/30% ACN upon titration with various anions; assay type: binding; settings: 70% water/30% acetonitrile
Excerpt: (§6) Any observed fluorescence quenching in water could be readily circumvented by addition of a small amount of organic co-solvent. Preliminary solution-phase fluorescence sensing studies of both receptors were thus carried out in 70% water/30% acetonitrile.

Water solubility = assay type: physicochemical
[9] = Electrospray mass spectrometry monitoring for reaction with excess HS^−; assay type: physicochemical; settings: 10 μM in 10 mM HEPES aqueous buffer (7.4 pH), excess equivalents of HS^−
Excerpt: (§7) However, the increase in binding strength comes at the expense of a diminished degree of selectivity for HS^− as XB2 also binds Br^− and in particular I^− strongly.

[10] = Fluorescence titration of buffered receptor against NaOH; settings: buffered 10 μM receptor
Excerpt: as §7

[11] = Fluorescence titration of XB4 with NaCl in unbuffered water, BindFit; assay type: binding; design: key: N.B.: No Binding; settings: unbuffered water at 298 K; errors in parentheses
Experimental: (§8) Fluorescence titrations of XB4 were carried out with chloride, bromide, iodide and hydrosulfide.
(§9) BindFit analysis for each anion to determine binding isotherms (FIG. 20), and 1:1 stoichiometric association constants, shown in Table 2, was also conducted for XB4.

[12] = Fluorescence titration of XB4 with NaBr in unbuffered water, BindFit; assay type: binding; settings: unbuffered water at 298 K
Experimental: as §8, §9

[13] = Fluorescence titration of XB4 with NaI in unbuffered water, BindFit; assay type: binding; settings: unbuffered water at 298 K
Experimental: as §8, §9

[14] = Fluorescence titration of XB4 with NaSH in unbuffered water, BindFit; assay type: binding; settings: unbuffered water at 298 K
Experimental: as §8, §9

[15] = Solution-phase fluorescence sensing of BODIPY receptors in 70% water/30% acetonitrile; assay type: binding
Excerpt: as §6

[16] = excitation at 342 nm, pH 7.4 HEPES

Question: With `S` [Compound H2S, hydrogen sulphide] as the molecule, how does the pKa [1] read?
Answer: 7.0

Question: Which “Association constant Ka Cl^−” value [2] does the source give for `COCCOCCOCCOc1cc(COc2ccc3cc(-n4cc(-c5cncc(-c6cn(-c7cc8ccc(OCc9cc(OCCOCCOCCOC)c(OCCOCCOCCOC)c(OCCOCCOCCOC)c9)cc8oc7=O)nn6)c5)nn4)c(=O)oc3c2)cc(OCCOCCOCCOC)c1OCCOCCOCCOC` [HB1, reference compound] here?
Answer: NB

Question: What about the “Association constant Ka Br^−” value [3] of the same molecule?
Answer: NB

Question: And the “Association constant Ka I^−” value [4]?
Answer: NB

Question: And the “Association constant Ka HS^−” value [5]?
Answer: NB

Question: And the “LoD, Limit of Detection for HS−” value [5]?
Answer: NB

Question: What about the “fluorescent response to any anion” value [6] of the same molecule?
Answer: only minor fluorescence perturbations

Question: For `COCCOCCOCCOc1cc(COc2ccc3cc(-n4cc(CNCc5cn(-c6cc7ccc(OCc8cc(OCCOCCOCCOC)c(OCCOCCOCCOC)c(OCCOCCOCCOC)c8)cc7oc6=O)nn5)nn4)c(=O)oc3c2)cc(OCCOCCOCCOC)c1OCCOCCOCCOC` [HB3, reference compound], which “Association constant Ka Cl^−” value [2] is on record?
Answer: NB

Question: And the “Association constant Ka Br^−” value [3]?
Answer: NB

Question: And the “Association constant Ka I^−” value [4]?
Answer: NB

Question: What about the “Association constant Ka HS^−” value [5] of the same molecule?
Answer: NB

Question: And the “LoD, Limit of Detection for HS−” value [5]?
Answer: NB

Question: And the “fluorescent response to any anion” value [6]?
Answer: no fluorescent response to any anion

Question: And the pKa1 [7]?
Answer: 5.91 (±0.07)

Question: And the pKa2 [7]?
Answer: 9.98 (±0.01)

Question: What about the “amine pKa” value [7] of the same molecule?
Answer: 9.98

Question: With `COCCOCCOCCOc1cc(COC(=O)c2cc(-n3cc(C4=C5C(C)=CC(C)=[N+]5[B-](F)(F)n5c(C)cc(C)c54)nn3)cc(-n3cc(C4=C5C(C)=CC(C)=[N+]5[B-](F)(F)n5c(C)cc(C)c54)nn3)c2)cc(OCCOCCOCCOC)c1OCCOCCOCCOC` [HB-BDP-PEG, reference compound] as the molecule, how does the “response for all anions, in particular HS^−, compared with XB-BDP-PEG” value [8] read?
Answer: significantly diminished

Question: And the water solubility (Water solubility)?
Answer: generally water soluble

Question: Which results are given for `COCCOCCOCCOc1cc(COc2ccc3cc(-n4nnc(-c5cncc(-c6nnn(-c7cc8ccc(OCc9cc(OCCOCCOCCOC)c(OCCOCCOCCOC)c(OCCOCCOCCOC)c9)cc8oc7=O)c6I)c5)c4I)c(=O)oc3c2)cc(OCCOCCOCCOC)c1OCCOCCOCCOC` [XB1]?
Answer: Association constant Ka Cl^− [2]: NB; fluorescence response to Cl^− [2]: no intensity diminutions; Association constant Ka Br^− [3]: NB; fluorescence response to Br^− [3]: no intensity diminutions; Association constant Ka I^− [4]: NB; fluorescence response to I^− [4]: no intensity diminutions; Association constant Ka HS^− [5]: 16500 (1600) M^−1; fluorescence intensity quenched ([5]; 10 equivalents of HS^−, excitation at 342 nm, pH 7.4 HEPES): 60%; reaction with HS^− (electrospray mass spectrometry) [9]: no evidence of reaction was observed

Question: For `COCCOCCOCCOc1cc(COc2ccc3cc(-n4nnc(-c5cc(-c6nnn(-c7cc8ccc(OCc9cc(OCCOCCOCCOC)c(OCCOCCOCCOC)c(OCCOCCOCCOC)c9)cc8oc7=O)c6I)c[n+](C)c5)c4I)c(=O)oc3c2)cc(OCCOCCOCCOC)c1OCCOCCOCCOC.O=S(=O)([O-])C(F)(F)F` [XB2], which “Association constant Ka Cl^−” value [2] is on record?
Answer: NB

Question: And the “fluorescence response to Cl^−” value [2]?
Answer: no change was observed

Question: What about the “Association constant Ka Br^−” value [3] of the same molecule?
Answer: 60800 M⁻¹

Question: What about the “fluorescence response to Br^−” value [3] of the same molecule?
Answer: sensed

Question: What about the “Association constant Ka I^−” value [4] of the same molecule?
Answer: 103000 (24000) M^−1

Question: What about the “fluorescence response to I^−” value [4] of the same molecule?
Answer: sensed

Question: What about the “Association constant Ka HS^−” value [5] of the same molecule?
Answer: 158000 (31000) M^−1

Question: What about the “quenching on addition of HS^−” value [5, 16] of the same molecule?
Answer: 45%

Question: For `COCCOCCOCCOc1cc(COc2ccc3cc(-n4nnc(CNCc5nnn(-c6cc7ccc(OCc8cc(OCCOCCOCCOC)c(OCCOCCOCCOC)c(OCCOCCOCCOC)c8)cc7oc6=O)c5I)c4I)c(=O)oc3c2)cc(OCCOCCOCCOC)c1OCCOCCOCCOC` [XB3], which “Association constant Ka Cl^−” value [2] is on record?
Answer: NB

Question: What about the “fluorescence response to Cl^−” value [2] of the same molecule?
Answer: no change was observed

Question: And the “Association constant Ka Br^−” value [3]?
Answer: NB

Question: What about the “Association constant Ka I^−” value [4] of the same molecule?
Answer: 46000 (14000) M^−1

Question: And the “fluorescence response to I^−” value [4]?
Answer: detected

Question: What about the “Association constant Ka HS^−” value [5] of the same molecule?
Answer: 5600 (530) M^−1

Question: And the “LoD, Limit of Detection for HS−” value ([5]; listed as XB3H^+)?
Answer: 24.6 µM

Question: And the “quenching on addition of HS^−” value [5, 16]?
Answer: 38%

Question: What about the pKa1 [7] of the same molecule?
Answer: 4.07 (±0.01)

Question: What about the pKa2 [7] of the same molecule?
Answer: 10.29 (±0.01)

Question: What about the “amine pKa” value [7] of the same molecule?
Answer: 10.29

Question: What about the “change in fluorescence on titration against NaOH” value [10] of the same molecule?
Answer: no change in fluorescence

Question: What does the source list for `COCCOCCOCCN(CCCOc1ccc2cc(-n3nnc(CNCc4nnn(-c5cc6ccc(OCCCN(CCOCCOCCOC)CCOCCOCCOC)cc6oc5=O)c4I)c3I)c(=O)oc2c1)CCOCCOCCOC` [XB4]?
Answer: Association constant Ka Cl^− [11]: N.B.; coumarin fluorescence response to bromide [12]: switching off; Association constant Ka Br^− ([12]; errors in parentheses): >10^5 M^−1; coumarin fluorescence response to iodide [13]: switching off; Association constant Ka I^− ([13]; errors in parentheses): >10^5 M^−1; coumarin fluorescence response to hydrosulfide [14]: switching off; Association constant Ka HS^− ([14]; errors in parentheses): 7500 (660) M^−1

Question: With `COCCOCCOCCOc1cc(COC(=O)c2cc(-n3nnc(C4=C5C(C)=CC(C)=[N+]5[B-](F)(F)n5c(C)cc(C)c54)c3I)cc(-n3nnc(C4=C5C(C)=CC(C)=[N+]5[B-](F)(F)n5c(C)cc(C)c54)c3I)c2)cc(OCCOCCOCCOC)c1OCCOCCOCCOC` [XB-BDP-PEG] as the molecule, how does the “fluorescence perturbation by I^−” value [15] read?
Answer: Smaller, but notable, perturbations

Question: What about the “fluorescence perturbation by SCN^−” value [15] of the same molecule?
Answer: Smaller, but notable, perturbations

Question: And the “fluorescence response to Br” value [15]?
Answer: only very small responses

Question: And the “fluorescence response to Cl” value [15]?
Answer: only very small responses

Question: What about the “emission quenching by HS^−” value ([15]; preliminary) of the same molecule?
Answer: ≈ 65%

Question: What about the water solubility (Water solubility) of the same molecule?
Answer: generally water soluble
